Counter-ions that a name gives are not always drawn.
Columns and labels:
[1] = SAXD nanostructure of lipid compositions hydrated with PBS; assay type: physicochemical; settings: for API concentration at which the cubic Fd3m structure is not significantly altered / API concentration at which the cubic structure is completely lost / API concentration at which transformation into L2 solution begins: SPC/GDO 35/65, lipid/EtOH/PG 85/10/5, PBS
Protocol: Aqueous phase behavior was studied by hydrating non-aqueous lipid formulations with phosphate buffered saline (0.01 M phosphate buffer with 0.137 M NaCl and 0.002 M KCl, pH 7.4) at various weight ratios: 2:1, 1:1, 1:2 and 1:9. After brief vortexing, samples were left to equilibrate at room temperature for 1 week before X-ray diffraction measurements.
The nanostructure of hydrated lipid samples was studied using synchrotron small angle X-ray diffraction (SAXD). Measurements were performed at the 1911 beam-line at MAX-lab (Lund University, Sweden), using a Pilatus 1M 165 mm CCD detector with a resolution of 981×1043 pixels at a pixel size of 0.172 mm. The lipid samples were mounted between kapton windows in a steel sample holder at a sample-to-detector distance of 1312 mm. Diffractograms were recorded at the X-ray wavelength of 0.91 Å and a beam size of 0.25×0.25 mm (full width at the half maximum) at the sample. Temperature control within 0.1° C. was achieved using computer controlled Julabo heating circulator F12-MC (Julabo Labortechnik GMBH, Seelbach, Germany). When temperature effects were studied, the experiments were performed successively at 25° C., 37° C. and 42° C. with a 3-min exposure time at each temperature and a wait of 10 minutes between temperature steps. The resulting CCD images were integrated and analysed using the Fit2D software provided by Dr. A. Hammersley (http://www.esrf.fr/computing/scientific/FIT2D). Silver behanate calibrated sample-to-detector distance and detector positions were used.

[2] = Depot injected into rat periodontal pocket; assay type: in vivo; settings: PC/GDO/EtOH/Gardol (34/51/10/5) injected into rat periodontal pocket
Protocol: In order to treat periodontitis or perimplantitis an antibacterial formulation is injected in the periodontal pocket, and a prolonged effect of the formulation is normally desired. […] The injected composition is observed to transform from the low viscous formulation, and which initially spreads out to fill voids, to form a solid mass by uptake of gingival fluids. An antibacterial depot system is thus provided.
This formulation is injected into the rat periodontal pocket.
Gardol is observed to remain at clinically effective levels in the GCF of the periodontal pockets for a prolonged period (several days).

[3] = Surface gel formation of chlorhexidine depots in situ; assay type: physicochemical; settings: applied as a liquid, bioadhesive gel in situ
Source text: For topical bioadhesive, controlled release products for intraoral (including buccal & periodontal) administration; • i. benzydamine (local analgesic, anti inflammatory) or other local analgesic, analgesic, anti inflammatory, anti bacterial, anti fungal or combination thereof. Composition provides sustained effect at intraoral mucosa, in particular damaged, sensitised, infected mucosa e.g. in patients suffering from oral mucositis (induced by e.g. chemo- and radiotherapy). In particular for treatment of oral mucositis. • ii. tramadol (analgesic). […] Particularly for long acting effect in periodontal pocket.

[4] = stated as clinically effective level; cited from earlier work

CN(C)CCCOc1nn(Cc2ccccc2)c2ccccc12 [BZD, benzydamine]
phase formed at lipid formulation to PBS weight ratio of 1:1 ([1]; 3 wt % BZD, SPC/GDO 35/65): cubic Fd3m LC phase is formed | effect on Fd3m LC phase at SPC/GDO weight ratio of 30/70 ([1]; 3 wt % of BZD, 25° C.): transforms into L2 solution | API concentration at which the cubic Fd3m structure is not significantly altered [1]: up to 3.5 wt %

CN1C2CCCC1CC(NC(=O)c1nn(C)c3ccccc13)C2 (stereo not shown) [GRN, Granisetron hydrochloride]
API concentration at which the cubic structure is completely lost [1]: about 1.5 wt % | API concentration at which transformation into L2 solution begins [1]: 0.8 wt %

CCCCCCCCCCCC(=O)N(C)CC(=O)[O-].[Na+] [Gardol, Glycine, N-methyl-N-(1-oxododecyl)-, sodium salt]
time Gardol remains at clinically effective levels in the GCF of the periodontal pockets [2]: several days

CCN(CC)CC(=O)Nc1c(C)cccc1C [LID, Lidocaine]
API concentration at which the cubic Fd3m structure is not significantly altered [1]: ≤ 1.7 wt % | API concentration at which the cubic structure is completely lost [1]: lower than 3 wt % | API concentration at which transformation into L2 solution begins [1]: 2 wt %

CC1(C)O[C@@H]2C[C@H]3[C@@H]4CCC5=CC(=O)C=C[C@]5(C)[C@@]4(F)[C@@H](O)C[C@]3(C)[C@]2(C(=O)CO)O1 [TCA, triamcinolone acetonide]
effect on formation and lattice dimensions of the cubic structure ([1]; SPC/GDO 35/65, lipid/EtOH/PG 85/10/5): very little effect | API concentration at which the cubic Fd3m structure is not significantly altered [1]: ≥ 5 wt %

N=C(NCCCCCCNC(=N)NC(=N)Nc1ccc(Cl)cc1)NC(=N)Nc1ccc(Cl)cc1.O=C(O)[C@H](O)[C@@H](O)[C@H](O)[C@H](O)CO.O=C(O)[C@H](O)[C@@H](O)[C@H](O)[C@H](O)CO [chlorhexidine gluconate]
Surface gel formation time [3]: between 1 second and 5 min

chlorhexidine
MIC [4]: 125 µg/mL

Reference: US9649382B2, “Topical bioadhesive formulations” (CAMURUS AB, priority 2005, dated 2017)
